How the values were obtained:
BRD2/3/4 = assay: ChIP-seq of BRD2/3/4 in VCaP cells; type: cell-based; conditions: 500 nM, 12 h
Method: (§1) The ChIP assays for BRD2, BRD3, BRD4, AR, RNA PolII, ERG and H3K27ac were performed using HighCell ChIP kit (Diagenode) according to manufacturer's protocol. […] Next, cells were cross-linked for 10 min. with 1% formaldehyde. […] Chromatin equivalent to 5×10^6 cells were used for ChIP using different antibodies. ChIP DNA was isolated (IPure Kit, Diagenode) from samples by incubation with the antibody at 4° C. overnight followed by wash and reversal of cross-linking. The ChIP-seq sample preparation for sequencing was performed according to the manufacturer's instructions (Illumina). […] A single A-base was added to fragment ends by Klenow fragment (3′ to 5′ exo minus; NEB) followed by ligation of Illumina adaptors (Quick ligase, NEB). The adaptor-modified DNA fragments were enriched by PCR using the Illumina Barcode primers and Phusion DNA polymerase (NEB). PCR products were size selected using 3% NuSieve agarose gels (Lonza) followed by gel extraction using QIAEX II reagents (QIAGEN). Libraries were quantified with the Bioanalyzer 2100 (Agilent) and sequenced on the Illumina HiSeq 2000 Sequencer (100 nucleotide read length).

[1] = system: VCaP prostate cancer cells; assay: Cell growth inhibition, VCaP prostate cancer cells (Cell-Titer GLO); type: cell-based; conditions: 8 days; FIG. 22
Method: For prostate cancer cell lines, VCaP prostate cancer cells were grown in DMEM with Glutamax (Gibco) supplemented with 10% FBS (Invitrogen) in 5% CO2 cell culture incubator. All cell lines were tested and found to be free of mycoplasma contamination. Cells were seeded in 96-well plates at 2,000-10,000 cells per well (optimum density for growth) in a total volume of […] media containing 10% FBS. Serially diluted compounds in […] media were added to the cells 12 h later. […] The values were normalized and IC50 was calculated using GraphPad Prism software.
Cells were seeded in 96-well plates at 2000-10,000 cells/well (optimum density for growth) in a total volume of 100 μl media containing 10% FBS. Serially diluted compounds in 100 μl media were added to the cells 12 h later. Following 96 h. incubation, cell viability was assessed by Cell-Titer GLO (Promega). The values were normalized and IC50 was calculated using GraphPad Prism software. […] After 12 days cells were fixed with methanol, stained with crystal violet and photographed. For colorimetric assays, the stained wells were treated with 500 μl 10% acetic acid and the absorbance was measured at 560 nm using a spectrophotometer.

AR = assay: ChIP-seq of AR in DHT-stimulated VCaP cells; type: cell-based; conditions: DHT 10 nM plus JQ1 500 nM, MDV3100 10 μM or Bicalutamide 25 μM, FIG. 17
Method: as §1
For enrichment plots shown in FIGS. 17, 19 and 20, identified peaks for each sample are centered by peak summit and average coverage per million was counted within 1500 bp relative to the peak center.

VCaP tumor xenograft = system: VCaP tumor xenograft
Method: (§2) Four week-old male SCID C.B17 mice were procured from a breeding colony at University of Michigan. All procedures involving mice were approved by the University Committee on Use and Care of Animals (UCUCA) at the University of Michigan and conform to all regulatory standards. Mice were anesthetized using 2% Isoflurane (inhalation) and 2×10^6 VCaP prostate cancer cells suspended in 100 μl of PBS with 50% Matrigel (BD Biosciences) were implanted subcutaneously into the dorsal flank on both sides of the mice. […] Growth in tumor volume was recorded using digital calipers and tumor volumes were estimated using the formula (π/6) (L×W^2), where L=length of tumor and W=width. Loss of body weight during the course of the study was also monitored. At the end of the studies mice were sacrificed and tumors extracted and weighed. Additionally, femur bone marrow, liver and spleen were harvested to examine spontaneous metastasis by detecting human-Alu sequence. […] All procedures involving mice were approved by the University Committee on Use and Care of Animals (UCUCA) at the University of Michigan and conform to all regulatory standards.

VCaP xenograft model = assay: Spontaneous metastasis in the VCaP xenograft model (human Alu qPCR); type: in vivo, mice; conditions: femur, liver and spleen; JQ1 50 mg/kg, MDV3100 10 mg/kg
Method: as §2

Row | Compound | recruitment of BRD2/3/4 to the chromatin (BRD2/3/4) | VCaP cell viability in vitro [1] | recruitment of AR to target loci (AR) | tumor volume/weight (VCaP tumor xenograft; VCaP tumor-bearing mice, JQ1 50 mg/kg, MDV3100 10 mg/kg, 5 days/week, FIGS. 23-25) | tolerability (VCaP tumor xenograft; mouse, in vivo) | spontaneous metastasis (VCaP xenograft model)
1 | CCNC(=O)C[C@@H]1N=C(c2ccc(Cl)cc2)c2cc(OC)ccc2-n2c(C)nnc21 [I-BET762] | reduction in the recruitment |  |  |  |  | 
2 | CNC(=O)c1ccc(N2C(=S)N(c3ccc(C#N)c(C(F)(F)F)c3)C(=O)C2(C)C)cc1F [MDV3100, enzalutamide] |  | Marginal cell death | markedly attenuated | less pronounced effect | well tolerated | evidence of metastases in femur and liver

Source: patent US9580430B2, “9H-pyrimido[4,5-B]indoles and related analogs as BET bromodomain inhibitors” (THE REGENTS OF THE UNIVERSITY OF MICHIGAN, priority 2014, dated 2017)
